Molecular target: T1, human DGAT1 (Homo sapiens, UniProt O75907)
T1 construct: (His)6; made in house; host or cells: Sf9 insect cells (membrane preparation)
T1 sequence (O75907 1-488): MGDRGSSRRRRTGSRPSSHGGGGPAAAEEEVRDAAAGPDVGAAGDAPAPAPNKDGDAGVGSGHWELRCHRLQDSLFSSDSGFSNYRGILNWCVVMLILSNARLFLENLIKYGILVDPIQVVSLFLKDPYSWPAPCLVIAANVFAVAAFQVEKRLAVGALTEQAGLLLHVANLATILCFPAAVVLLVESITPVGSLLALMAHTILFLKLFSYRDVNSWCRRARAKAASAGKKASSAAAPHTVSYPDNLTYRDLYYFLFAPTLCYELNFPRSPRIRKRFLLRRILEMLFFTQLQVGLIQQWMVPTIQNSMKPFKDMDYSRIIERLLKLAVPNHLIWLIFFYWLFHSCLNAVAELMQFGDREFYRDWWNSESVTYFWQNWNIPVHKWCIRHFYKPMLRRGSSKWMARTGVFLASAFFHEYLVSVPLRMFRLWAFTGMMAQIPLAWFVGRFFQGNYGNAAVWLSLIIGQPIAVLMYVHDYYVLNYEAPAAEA
Assay: DGAT1 enzyme inhibition assay (Sf9 membrane preparation, LC/MS/MS readout)
Assay type: biochemical
Conditions: membrane preparation from Sf9 cells overexpressing human (His)6DGAT1; 10-point, 3-fold dose response; read-out: IC50 (inhibitory activity to human DGAT1)
Experimental: The enzyme preparation used in this assay is a membrane preparation from Sf9 cells overexpressing human (His)6DGAT1. During all steps samples were chilled to 4° C. Sf9 cells expressing human (His)6DGAT1 were thawed at RT and re-suspended at a 10:1 ratio (mL buffer/g of cells) in 50 mM HEPES, 1× Complete Protease Inhibitor, pH 7.5. The re-suspended pellet was homogenized for 1 min using a Brinkman PT 10/35 homogenizer with a 20 mm generator. Cells were lysed using Avestin Emulsiflex (chilled to 4° C.) at 10000-15000 psi. Lysate was centrifuged at 100,000×g for 1 h at 4° C. Supernatant was removed and pellets were re-suspended in 50 mM HEPES, 1× Complete Protease Inhibitor, pH 7.5 at ⅙ the volume of supernatant. Re-suspended pellets were pooled and homogenized with 10 strokes of a Glas-Col motor driven teflon pestle on setting 70. The protein concentration of the membrane preparation was quantified using BCA protein assay with 1% SDS. The membrane preparation was aliquoted, frozen on dry ice, and stored at −80° C.
For 50 mL, 25 mL of 0.2 M HEPES stock buffer, 0.5 mL of 1 M MgCl2 (5 mM final concentration), and 24.5 mL of milli-Q H20 are added to the 55 mL Wheaton Potter-Elvehjem homogenizer. Enzyme preparation (0.1 mL) is added to buffer and the mixture is homogenized with 5 strokes on ice using the Glas-Col variable speed homogenizer system on setting 70.
For 50 mL, 0.5 mL 10 mM diolein is added to 9.5 mL of EtOH in a 50 mL Falcon screw cap conical centrifuge tube. Five mL of 10 mM sodium acetate pH 4.5 is added followed by 0.5 mL of 10 mM oleoyl-CoA. Finally, the remaining 4.5 mL of 10 mM sodium acetate pH 4.5 is added followed by 30 mL of milli-Q H2O. The solution should be gently agitated by hand to induce mixing. The final concentrations of EtOH and sodium acetate are 20% and 2 mM, respectively.
Dry compounds are dissolved in the appropriate volume of DMSO to a final concentration of 10 mM. A 10-point, 3-fold dose response is used to evaluate compound potency. All dilutions are performed in DMSO in a Greiner 384-well microplate. • 1. 2 μL of compound in DMSO is added to the appropriate wells. 2 μL of DMSO is added to 100% activity and 100% inhibition controls. • 2. 25 μL of enzyme mix is added to all wells and plate(s) are incubated for 10 min at RT. • 3. 10 μL of 20% acetic acid quench is added to 100% inhibition control wells. Plate(s) are vortexed using Troemner multi-tube vortexer (setting 7 for 10 sec). • 4. 25 μL of substrate mix is added to all wells. Plate(s) are vortexed using Troemner multi-tube vortexer (setting 7 for 10 sec). Plate(s) are incubated for 30 min at RT. • 5. 10 μL of 20% acetic acid quench is added to all wells. Plate(s) are vortexed using Troemner multi-tube vortexer (setting 7 for 10 sec). • 6. 50 μL of 1-butanol w/ glyceryl tripalmitoleate internal standard is added to all wells. • 7. Plate(s) are sealed with super pierce strong plate sealer using the thermo-sealer.
8. Plate(s) are vortexed using Troemner multi-tube vortexer (setting 10 for 5 min). • 9. Plate(s) are centrifuged at 162×g (1000 rpm for GH-3.8 rotor) for 5 min using Beckman GS-6R tabletop centrifuge.
Samples were analyzed by LC/MS/MS using a Waters 1525μ LC and Quattro Micro API MS. Where indicated, tripalmitolein was used as an internal standard to control for instrument variation.
Data is converted to % inhibition prior to curve fitting using the following equation: […]

SMILES | IC50
COc1ccc(-c2nnc(-c3ccc4nc(-c5c(C)cc(CC(C)(C)C(=O)O)cc5C)[nH]c4c3)o2)cc1 [Example 1-62, 3-(4-{5-[5-(4-Methoxy-phenyl)-[1,3,4]oxadiazol-2-yl]-1H-benzoimidazol-2-yl}-3,5-dimethyl-phenyl)-2,2-dimethyl-propionic acid] | 15 nM
Cc1nc(-c2ccc3nc(-c4c(Cl)cccc4Cl)[nH]c3c2)oc1-c1ccc(Cl)cc1 [Example 1-25, 6-[5-(4-Chlorophenyl)-4-methyl-oxazol-2-yl]-2-(2,6-dichlorophenyl)-1H-benzoimidazole] | 4700 nM
N#Cc1cccc(Nc2nnc(-c3ccc4nc(-c5c(Cl)cccc5Cl)[nH]c4c3)o2)c1 [Example 1-51, 3-{5-[2-(2,6-Dichloro-phenyl)-3H-benzoimidazol-5-yl]-[1,3,4]oxadiazol-2-ylamino}-benzonitrile] | 310 nM
Cc1cncc(-c2nnc(-c3ccc4nc(-c5c(Cl)cccc5Cl)[nH]c4c3)o2)c1 [Example 1-15, 2-(2,6-Dichloro-phenyl)-6-[5-(5-methyl-pyridin-3-yl)-[1,3,4]oxadiazol-2-yl]-1H-benzoimidazole] | 2300 nM
Clc1cc(Nc2nnc(-c3ccc4nc(-c5c(Cl)cccc5Cl)[nH]c4c3)o2)ccn1 [Example 1-43, (2-Chloro-pyridin-4-yl)-{5-[2-(2,6-dichloro-phenyl)-3H-benzoimidazol-5-yl]-[1,3,4]oxadiazol-2-yl}-amine] | 80 nM
Clc1cccc(Cl)c1-c1nc2ccc(-c3nc(-c4ccccc4)c(-c4ccccc4)o3)cc2[nH]1 [Example 1-24, 2-(2,6-Dichloro-phenyl)-6-(4,5-diphenyl-oxazol-2-yl)-1H -benzoimidazole] | > 10000 nM
Cc1ccc(Nc2nnc(-c3ccc4nc(-c5c(Cl)cccc5Cl)[nH]c4c3)o2)cn1 [Example 1-38, {5-[2-(2,6-Dichloro-phenyl)-3H-benzoimidazol-5-yl]-[1,3,4]oxadiazol-2-yl}-(6-methyl-pyridin-3-yl)-amine] | 54 nM
Clc1cccc(Cl)c1-c1nc2ccc(-c3nnc(Nc4cccnc4)o3)cc2[nH]1 [Example 1-29, {5-[2-(2,6-Dichloro-phenyl)-3H-benzoimidazol-5-yl]-[1,3,4]oxadiazol-2-yl}-pyridin-3-yl-amine] | 400 nM
Cc1cc(CCC(=O)O)cc(C)c1-c1nc2ccc(-c3nnc(Nc4cccc(Cl)c4)o3)cc2[nH]1 [Example 1-59, 3-(4-{6-[5-(3-Chlorophenylamino)-[1,3,4]oxadiazol-2-yl]-1H-benzoimidazol-2-yl}-3,5-dimethylphenyl)-propionic acid] | 9 nM
Clc1cccc(Cl)c1-c1nc2ccc(-c3nnc(N4CCCC4)o3)cc2[nH]1 [Example 1-34, 2-(2,6-Dichloro-phenyl)-6-(5-pyrrolidin-1-yl-[1,3,4]oxadiazol-2-yl)-1H-benzoimidazole] | > 10000 nM
